{"source": "ChEMBL document CHEMBL6153102", "about": "“Rational Design, Synthesis, and Biological Evaluation of Novel c-Met Degraders for Lung Cancer Therapy” (J Med Chem, 2025)", "key": {"EBC-1 [1]": {"tested_on": "EBC-1", "experiment": "Induction of apoptosis in human EBC-1 cells assessed as upregulation of PARP level incubated for 24 hrs by Western blot analysis", "format": "functional, cell-based", "details": "dose 5-50 nM"}, "[2]": {"experiment": "Metabolic stability in human liver microsome assessed as clearance", "format": "ADME", "details": "liver microsomes, read-out: CLH"}, "EBC-1 [3]": {"tested_on": "EBC-1", "experiment": "Induction of apoptosis in human EBC-1 cells assessed as viable cells at 5 nM incubated for 24 hrs by Annexin V/FITC staining based flow cytometry analysis (reference value: 95.9%)", "format": "functional", "details": "read-out: Activity"}, "EBC-1 [4]": {"tested_on": "EBC-1", "experiment": "Induction of apoptosis in human EBC-1 cells assessed as early apoptotic cells at 15 nM incubated for 24 hrs by Annexin V/FITC staining based flow cytometry analysis (reference value: 2.11 %)", "format": "functional"}, "[5]": {"experiment": "Cmax in Sprague-Dawley rat at 2 mg/kg, iv measured upto 24 hrs by LC-MS/MS analysis", "format": "ADME, organism-based", "details": "in vivo"}, "[6]": {"experiment": "Toxicity in BALB/c nude mouse assessed as lung damage at 10 to 20 mg/kg, ip administered for 7 days by H and E staining based analysis", "format": "organism-based", "details": "in vivo, 168 h, dose 10-20 mg/kg, time 7 day"}, "EBC-1 [7]": {"tested_on": "EBC-1", "experiment": "Induction of apoptosis in human EBC-1 cells assessed as early apoptotic cells at 50 nM incubated for 24 hrs by Annexin V/FITC staining based flow cytometry analysis (reference value: 2.11 %)", "format": "functional"}, "[8]": {"target": "T1, Protein cereblon/Hepatocyte growth factor receptor (Homo sapiens, UniProt P08581+Q96SW2)", "experiment": "PROTAC activity at c-Met/CRBN in human A549 cells assessed as induction of c-Met degradation incubated for 24 hrs by Western blotting analysis", "format": "cell-based"}, "[9]": {"target": "T1, Protein cereblon/Hepatocyte growth factor receptor", "experiment": "PROTAC activity at c-Met/CRBN in human HCT-116 cells assessed as reduction in c-Met level at 3.9 to 125 nM incubated for 24 hrs in presence of tepotinib by Western blot analysis", "format": "cell-based", "details": "dose 3.9-125 nM"}, "EBC-1 [10]": {"tested_on": "EBC-1", "experiment": "Induction of apoptosis in human EBC-1 cells assessed as viable cells at 50 nM incubated for 24 hrs by Annexin V/FITC staining based flow cytometry analysis (reference value: 95.9%)", "format": "functional", "details": "read-out: Activity"}, "[11]": {"experiment": "Toxicity in BALB/c nude mouse assessed as kidney damage at 10 to 20 mg/kg, ip administered for 7 days by H and E staining based analysis", "format": "organism-based", "details": "in vivo, 168 h, dose 10-20 mg/kg, time 7 day"}, "[12]": {"target": "T1, Protein cereblon/Hepatocyte growth factor receptor", "experiment": "PROTAC activity at c-Met/CRBN in human EBC-1 cells assessed as reduction in c-Met level at 3.9 to 125 nM incubated for 24 hrs in presence of MG132 by Western blot analysis", "format": "cell-based", "details": "dose 3.9-125 nM"}, "[13]": {"experiment": "Bioavailability in Sprague-Dawley rat at 5 mg/kg, ip measured upto 24 hrs by LC-MS/MS analysis", "format": "ADME, organism-based", "details": "in vivo"}, "[14]": {"experiment": "Metabolic stability in rat liver microsome assessed as half life", "format": "ADME", "details": "liver microsomes"}, "[15]": {"target": "T1, Protein cereblon/Hepatocyte growth factor receptor", "experiment": "PROTAC activity at c-Met/CRBN in human EBC-1 cells assessed as reduction in AKR1C2 level at 15.6 nM incubated for 24 hrs by proteomics analysis", "format": "cell-based"}, "EBC-1 [16]": {"tested_on": "EBC-1", "experiment": "Induction of apoptosis in human EBC-1 cells assessed as late apoptotic cells at 50 nM incubated for 24 hrs by Annexin V/FITC staining based flow cytometry analysis (reference value: 1.65 %)", "format": "functional"}, "EBC-1 [17]": {"tested_on": "EBC-1", "experiment": "Antiproliferative activity against human EBC-1 cells assessed as cell viability incubated for 72 hrs by MTT assay", "format": "functional, cell-based", "details": "EBC-1, 72 h"}, "[18]": {"experiment": "MRT (0 to infinity) in Sprague-Dawley rat at 5 mg/kg, ip measured upto 24 hrs by LC-MS/MS analysis", "format": "ADME, organism-based", "details": "in vivo"}, "[19]": {"experiment": "AUC (0 to t) in Sprague-Dawley rat at 5 mg/kg, ip measured upto 24 hrs by LC-MS/MS analysis", "format": "ADME, organism-based", "details": "in vivo"}, "[20]": {"target": "T1, Protein cereblon/Hepatocyte growth factor receptor", "experiment": "PROTAC activity at c-Met/CRBN in human EBC-1 cells assessed as induction of c-Met degradation at 15.6 nM incubated for 24 hrs by Western blotting analysis relative to control", "format": "cell-based"}, "EBC-1 [21]": {"tested_on": "EBC-1", "experiment": "PROTAC activity at c-Met […] mutant /CRBN in human EBC-1 cells assessed as induction of c-Met degradation incubated for 24 hrs by Western blotting analysis", "format": "cell-based", "details": "dose <= 1000.0 nM"}, "[22]": {"experiment": "MRT (0 to infinity) in Sprague-Dawley rat at 2 mg/kg, iv measured upto 24 hrs by LC-MS/MS analysis", "format": "ADME, organism-based", "details": "in vivo"}, "[23]": {"experiment": "AUC (0 to t) in Sprague-Dawley rat at 2 mg/kg, iv measured upto 24 hrs by LC-MS/MS analysis", "format": "ADME, organism-based", "details": "in vivo"}, "A549": {"tested_on": "A549", "experiment": "Antiproliferative activity against human A549 cells assessed as cell viability incubated for 72 hrs by MTT assay", "format": "functional, cell-based", "details": "A549, 72 h"}, "EBC-1 [24]": {"tested_on": "EBC-1", "experiment": "PROTAC activity at c-Met Y1230C mutant /CRBN in human EBC-1 cells assessed as induction of c-Met degradation up to 1000 nM incubated for 24 hrs by Western blotting analysis", "format": "cell-based"}, "[25]": {"experiment": "Stability in human plasma assessed as half life", "format": "ADME, cell-free"}, "EBC-1 [26]": {"tested_on": "EBC-1", "experiment": "Induction of apoptosis in human EBC-1 cells assessed as early apoptotic cells at 5 nM incubated for 24 hrs by Annexin V/FITC staining based flow cytometry analysis (reference value: 2.11 %)", "format": "functional"}, "[27]": {"experiment": "Toxicity in BALB/c nude mouse assessed as spleen damage at 10 to 20 mg/kg, ip administered for 7 days by H and E staining based analysis", "format": "organism-based", "details": "in vivo, 168 h, dose 10-20 mg/kg, time 7 day"}, "[28]": {"target": "T1, Protein cereblon/Hepatocyte growth factor receptor", "experiment": "PROTAC activity at c-Met/CRBN in human HCT-116 cells assessed as induction of c-Met degradation at 100 nM incubated for 24 hrs by Western blotting analysis relative to control", "format": "cell-based"}, "[29]": {"experiment": "Tmax in Sprague-Dawley rat at 5 mg/kg, ip measured upto 24 hrs by LC-MS/MS analysis", "format": "ADME, organism-based", "details": "in vivo"}, "[30]": {"experiment": "Stability in rat plasma assessed as half life", "format": "ADME, cell-free"}, "[31]": {"target": "T1, Protein cereblon/Hepatocyte growth factor receptor", "experiment": "PROTAC activity at c-Met/CRBN in human HCT-116 cells assessed as induction of c-Met degradation incubated for 24 hrs by Western blotting analysis", "format": "cell-based"}, "[32]": {"experiment": "Half life in Sprague-Dawley rat at 2 mg/kg, iv measured upto 24 hrs by LC-MS/MS analysis", "format": "ADME, organism-based", "details": "in vivo"}, "[33]": {"target": "T1, Protein cereblon/Hepatocyte growth factor receptor", "experiment": "PROTAC activity at c-Met/CRBN in human EBC-1 cells assessed as reduction in c-Met level at 3.9 to 125 nM incubated for 24 hrs in presence of tepotinib by Western blot analysis", "format": "cell-based", "details": "dose 3.9-125 nM"}, "HCT-116": {"tested_on": "HCT-116", "experiment": "Antiproliferative activity against human HCT-116 cells assessed as cell viability incubated for 72 hrs by MTT assay", "format": "functional, cell-based", "details": "HCT-116, 72 h"}, "[34]": {"target": "T1, Protein cereblon/Hepatocyte growth factor receptor", "experiment": "PROTAC activity at c-Met/CRBN in human A549 cells assessed as reduction in c-Met level at 3.9 to 125 nM incubated for 24 hrs in presence of tepotinib by Western blot analysis", "format": "cell-based", "details": "dose 3.9-125 nM"}, "[35]": {"target": "T1, Protein cereblon/Hepatocyte growth factor receptor", "experiment": "PROTAC activity at c-Met/CRBN in human HCT-116 cells assessed as induction of c-Met degradation at 15.6 nM by Western blotting analysis", "format": "cell-based", "details": "time 72.0 hrs"}, "[36]": {"experiment": "Apparent volume of distribution in Sprague-Dawley rat at 2 mg/kg, iv measured upto 24 hrs by LC-MS/MS analysis", "format": "ADME, organism-based", "details": "in vivo"}}, "note": "Calls of active or inactive are those of the source. The calls are words filed in the database; no cut-off is given here.", "data": [{"smiles": "COc1ccc(C(=O)N2CCC3(CCN(C(=O)CN4CCC(COc5cnc(-c6cccc(Cn7nc(-c8cccc(C#N)c8)ccc7=O)c6)nc5)CC4)CC3)CC2)cc1N1CCC(=O)NC1=O", "values": [{"measurement": "Activity", "setting": "EBC-1 [1]", "result": "Dose-dependent-effect"}, {"measurement": "CLint scaled", "setting": "[2]", "result": 57.6, "unit": "mL/min/kg"}, {"measurement": "viability at 0.005 µM", "setting": "EBC-1 [3]", "result": 66.4, "unit": "%"}, {"measurement": "Activity", "setting": "EBC-1 [4]", "result": 30.8, "unit": "%"}, {"measurement": "Cmax", "setting": "[5]", "result": 2380, "unit": "ng/mL"}, {"measurement": "Activity", "setting": "[6]", "result": "Non-toxic"}, {"measurement": "Activity", "setting": "EBC-1 [7]", "result": 33.9, "unit": "%"}, {"measurement": "DC50", "setting": "[8]", "result": "< 0.0156", "unit": "µM"}, {"measurement": "Activity", "setting": "[9]", "result": "inactive"}, {"measurement": "viability at 0.05 µM", "setting": "EBC-1 [10]", "result": 62, "unit": "%"}, {"measurement": "Activity", "setting": "[11]", "result": "Non-toxic"}, {"measurement": "Activity", "setting": "[12]", "result": "Active"}, {"measurement": "bioavailability", "setting": "[13]", "result": 49.2, "unit": "%"}, {"measurement": "half-life", "setting": "[14]", "result": 2.22, "unit": "h"}, {"measurement": "Activity", "setting": "[15]", "result": "Active"}, {"measurement": "Activity", "setting": "EBC-1 [16]", "result": 3.47, "unit": "%"}, {"measurement": "IC50", "setting": "EBC-1 [17]", "result": 0.004, "unit": "µM"}, {"measurement": "MRT inf", "setting": "[18]", "result": 6, "unit": "h"}, {"measurement": "AUCt", "setting": "[19]", "result": 655, "unit": "ng·h/mL"}, {"measurement": "Emax", "setting": "[20]", "result": 96.1, "unit": "%"}, {"measurement": "Activity", "setting": "EBC-1 [21]", "result": "Dose-dependent-effect"}, {"measurement": "MRT", "setting": "[22]", "result": 3.58, "unit": "h"}, {"measurement": "AUCt", "setting": "[23]", "result": 532, "unit": "ng·h/mL"}, {"measurement": "IC50", "setting": "A549", "result": 16, "unit": "µM"}, {"measurement": "Activity", "setting": "EBC-1 [24]", "result": "Active"}, {"measurement": "half-life", "setting": "[25]", "result": "> 2", "unit": "h"}, {"measurement": "Activity", "setting": "EBC-1 [26]", "result": 29.7, "unit": "%"}, {"measurement": "Activity", "setting": "[27]", "result": "Non-toxic"}, {"measurement": "Activity", "setting": "[28]", "result": "inactive"}, {"measurement": "Tmax", "setting": "[29]", "result": 2, "unit": "h"}, {"measurement": "half-life", "setting": "[30]", "result": "> 2", "unit": "h"}, {"measurement": "DC50", "setting": "[31]", "result": "< 0.0156", "unit": "µM"}, {"measurement": "t1/2", "setting": "[32]", "result": 6.9, "unit": "h"}, {"measurement": "Activity", "setting": "[33]", "result": "inactive"}, {"measurement": "IC50", "setting": "HCT-116", "result": 6.19, "unit": "µM"}, {"measurement": "Activity", "setting": "[34]", "result": "inactive"}, {"measurement": "Activity", "setting": "[35]", "result": "Time-dependent-effect"}, {"measurement": "Vz", "setting": "[36]", "result": 13.13, "unit": "L/kg"}]}]}
